Assays:
Type in all cases: cell-based
[1] = tested on: S. aureus, E. faecalis and S. pneumoniae; test: In vitro antibacterial action of haloaryl derivatives on standard and resistent test microorganisms; conditions: comparison within the series
Description: (§1) In vitro action of the novel compounds was investigated on a series of standard and resistent test microorganisms. […] In N′-(C1-C6)haloalkylcarbamoyl derivatives similar traits were observed.

[2] = tested on: test microorganisms sensitive to erythromycin; test: In vitro antibacterial activity against erythromycin-sensitive test microorganisms
Description: as §1

resistent strains = test: In vitro antibacterial activity against resistent strains
Description: as §1

SMILES: CC[C@H]1OC(=O)[C@H](C)[C@@H](O[C@H]2C[C@@](C)(OC)[C@@H](O)[C@H](C)O2)[C@H](C)[C@@H](O[C@@H]2O[C@H](C)C[C@H](N(C)C)[C@H]2O)[C@](C)(O)C[C@@H](C)CN(C(=S)Nc2cccc(C(F)(F)F)c2)[C@H](C)[C@@H](O)[C@]1(C)O [Example 21, 9-deoxo-9a-N-{N′-[(3-trifluoromethyl-phenyl)thiocarbamoyl]}-9a-aza-9a-homoerythromycin A]
- antibacterial in vitro activity (effectiveness) [1]: the most active one
- activity against test microorganisms sensitive to erythromycin [2]: activity against test microorganisms sensitive to erythromycin
- activity against resistent strains (resistent strains): showed an activity against resistent strains

Source: patent US6872707B1, “Halo derivatives of 9-deoxo-9a-aza-homerythromycin A” (PLIVA farmaceutska industrija dionicko drustvo, priority 1999, dated 2005)
